Test results reported in PMC6968633, “Synthesis, antibacterial and anticancer activity, and docking study of aminoguanidines containing an alkynyl moiety” (Journal of Enzyme Inhibition and Medicinal Chemistry, 2019).
Converted amounts (≈) assume the structure as drawn. Read-outs that look alike come from different tables or passages of the source.

Tests used:
[1] = test system: Escherichia coli CMCC 44568; assay: Antibacterial MIC, serial dilution; assay type: cell-based
Procedure: (§1) Test bacteria were grown to mid-log phase in Mueller–Hinton broth (MHB) or Tryptone Soya Broth (TSB) and diluted 1000-fold in the same medium. Bacteria (10^5 CFU/mL) were inoculated into MHB or TSB and dispensed at 0.2 ml/well into a 96-well microtiter plate. As positive controls, gatifloxacin, moxifloxacin, norfloxacin, oxacillin, and penicillin were used. […] Bacterial growth was determined by measuring the absorption at 630 nm using a microplate reader. All experiments were carried out three times.
(§2) The evaluation of antibacterial activity of all compounds (3a–3j and 6a–6k) was performed by a serial dilution method to determine the MIC against a panel of pathogens comprising five Gram-positive strains (S. aureus (CMCC(B) 26003 and CMCC 25923), Streptococcus mutans BNCC 336931, Enterococcus faecalis CMCC 29212, and Bacillus subtilis CMCC 63501), four Gram-negative strains (E. coli (CMCC 25922 and CMCC 44568) and P. aeruginosa (CMCC 27853 and CMCC 10104)), as well as three methicillin-resistant clinical isolates (S. aureus ATCC 43300 and ATCC 33591, P. aeruginosa ATCC BAA-2111). The results are described in Tables 1 and 2. Gatifloxacin, moxifloxacin, norfloxacin, oxacillin, and penicillin were used as positive controls.

[2] = test system: Streptococcus mutans BNCC 336931; assay: Antibacterial MIC, serial dilution; assay type: cell-based; conditions: S. mutans BNCC 336931, 24 h, 37 °C
Procedure: as §1, §2

[3] = test system: Staphylococcus aureus CMCC(B)26003; assay: Antibacterial MIC, serial dilution; assay type: cell-based
Procedure: as §1, §2

[4] = test system: Pseudomonas aeruginosa CMCC 10104; assay: Antibacterial MIC, serial dilution; assay type: cell-based; conditions: P. aeruginosa CMCC 10104, 24 h, 37 °C
Procedure: as §1, §2

[5] = test system: Pseudomonas aeruginosa CMCC 27853; assay: Antibacterial MIC, serial dilution; assay type: cell-based
Procedure: as §1, §2

[6] = test system: Escherichia coli CMCC 25922; assay: Antibacterial MIC, serial dilution; assay type: cell-based
Procedure: as §1, §2

[7] = test system: Enterococcus faecalis CMCC 29212; assay: Antibacterial MIC, serial dilution; assay type: cell-based; conditions: E. faecalis CMCC 29212, 24 h, 37 °C
Procedure: as §1, §2

[8] = test system: Bacillus subtilis CMCC 63501; assay: Antibacterial MIC, serial dilution; assay type: cell-based
Procedure: as §1, §2

[9] = test system: Staphyiococcus aureus CMCC 25923; assay: Antibacterial MIC, serial dilution; assay type: cell-based, Staphylococcus aureus
Procedure: as §1, §2

[10] = test system: Staphylococcus aureus ATCC 43300; assay: Antibacterial MIC, multidrug-resistant clinical isolate; assay type: cell-based; conditions: multidrug-resistant S. aureus ATCC 43300
Procedure: as §1, §2

[11] = test system: Staphylococcus aureus ATCC 33591; assay: as above; assay type: cell-based; conditions: multidrug-resistant S. aureus ATCC 33591
Procedure: as §1, §2

[12] = Escherichia coli, CMCC44568, E. coli CMCC 44568, 24 h, 37 °C, read-out: MIC
[13] = Streptococcus mutans, BNCC336931, read-out: MIC
[14] = Staphylococcus aureus, S. aureus CMCC(B)26003, 24 h, 37 °C, read-out: MIC
[15] = Pseudomonas aeruginosa, CMCC10104, read-out: MIC
[16] = Pseudomonas aeruginosa, CMCC27853, P. aeruginosa CMCC 27853, 24 h, 37 °C, read-out: MIC
[17] = Escherichia coli, CMCC25922, E. coli CMCC 25922, 24 h, 37 °C, read-out: MIC
[18] = Enterococcus faecalis, CMCC29212, read-out: MIC
[19] = Bacillus subtilis, CMCC63501, B. subtilis CMCC 63501, 24 h, 37 °C, read-out: MIC
[20] = Staphylococcus aureus, CMCC25923, S. aureus CMCC 25923, 24 h, 37 °C, read-out: MIC
[21] = Escherichia coli, CMCC44568, 24 h
[22] = Staphylococcus aureus, ATCC43300, read-out: MIC
[23] = Staphylococcus aureus, ATCC33591, read-out: MIC

| Compound | melting point [°C] | MIC [1, 12] [µg/mL] | MIC [2, 13] [µg/mL] | MIC [3, 14] [µg/mL] | MIC [4, 15] [µg/mL] | MIC [5, 16] [µg/mL] | MIC [6, 17] [µg/mL] | MIC [7, 18] [µg/mL] | MIC [8, 19] [µg/mL] | MIC [9, 20] [µg/mL] | also measured |
| --- | --- | --- | --- | --- | --- | --- | --- | --- | --- | --- | --- |
| N=C(N)NN=Cc1ccc(C#CC#Cc2cccc(F)c2)cc1 [Compound 6c, 2-(4-((3-Fluorophenyl)buta-1,3-diyn-1-yl)benzylidene)hydrazine-1-carboximidamide] | 186 to 190 | > 128 | 0.5 (≈ 1.64 µM) | 128 (≈ 421 µM) | 4 (≈ 13.1 µM) | > 128 | 2 (≈ 6.57 µM) | 0.5 (≈ 1.64 µM) | 2 (≈ 6.57 µM) | 128 (≈ 421 µM) | – |
| N=C(N)NN=Cc1ccc(C#CC#Cc2cccc(Cl)c2)cc1 [Compound 6f, 2-(4-((3-Chlorophenyl)buta-1,3-diyn-1-yl)benzylidene)hydrazine-1-carboximidamide] | 198 to 201 | 32 (≈ 99.8 µM) | 0.5 (≈ 1.56 µM) | 1 (≈ 3.12 µM) | 16 (≈ 49.9 µM) | > 128 | 4 (≈ 12.5 µM) | 0.5 (≈ 1.56 µM) | 4 (≈ 12.5 µM) | 8 (≈ 24.9 µM) | – |
| N=C(N)NN=Cc1ccc(C#CC#Cc2ccccc2Br)cc1 [Compound 6h, 2-(4-((2-Bromophenyl)buta-1,3-diyn-1-yl)benzylidene)hydrazine-1-carboximidamide] | 217 to 219 | 128 (≈ 350 µM) | 1 (≈ 2.74 µM) | 1 (≈ 2.74 µM) | 8 (≈ 21.9 µM) | > 128 | 8 (≈ 21.9 µM) | 0.5 (≈ 1.37 µM) | 2 (≈ 5.48 µM) | 32 (≈ 87.6 µM) | – |
| N=C(N)NN=Cc1ccc(C#CC#Cc2ccc(Br)cc2)cc1 [Compound 6j, 2-(4-((4-Bromophenyl)buta-1,3-diyn-1-yl)benzylidene)hydrazine-1-carboximidamide] | 227 to 230 | > 128 | > 128 | 128 (≈ 350 µM) | > 128 | > 128 | > 128 | 128 (≈ 350 µM) | > 128 | > 128 | – |
| COc1c(N2C[C@@H]3CCCN[C@@H]3C2)c(F)cc2c(=O)c(C(=O)O)cn(C3CC3)c12 [Moxifloxacin, reference compound] | – | – | 0.5 (≈ 1.25 µM) | – | 4 (≈ 9.96 µM) | – | – | – | – | – | MIC [1, 21]: 0.125 µg/mL (≈ 0.311 µM); MIC ([3]; Staphylococcus aureus, 24 h): 0.125 µg/mL (≈ 0.311 µM); MIC ([6]; Escherichia coli, CMCC25922, 24 h): 0.125 µg/mL (≈ 0.311 µM); MIC [10, 22]: 0.5 µg/mL (≈ 1.25 µM); MIC [11, 23]: 0.25 µg/mL (≈ 0.623 µM); MIC ([9]; Staphylococcus aureus, CMCC25923, 24 h): 0.125 µg/mL (≈ 0.311 µM) |
| Cc1onc(-c2ccccc2)c1C(=O)N[C@@H]1C(=O)N2[C@@H]1SC(C)(C)[C@@H]2C(=O)O [Oxacillin, reference compound] | – | – | 0.125 (≈ 0.311 µM) | 0.125 (≈ 0.311 µM) | 128 (≈ 319 µM) | – | 128 (≈ 319 µM) | 128 (≈ 319 µM) | – | 0.125 (≈ 0.311 µM) | MIC [1, 21]: > 128 µg/mL; MIC ([5]; Pseudomonas aeruginosa, CMCC27853, 24 h): > 128 µg/mL; MIC ([8]; Bacillus subtilis, CMCC63501, 24 h): > 128 µg/mL; MIC [10, 22]: 64 µg/mL (≈ 159 µM); MIC [11, 23]: 8 µg/mL (≈ 19.9 µM) |
| Penicillin [reference compound] | – | – | – | – | – | – | – | – | – | – | MIC ([1]; E. coli CMCC 44568, 24 h, 37 °C): >128 µg/mL; MIC [2]: 0.125 µg/mL; MIC ([3]; S. aureus CMCC(B)26003, 24 h, 37 °C): 0.125 µg/mL; MIC [4]: 32 µg/mL; MIC ([5]; P. aeruginosa CMCC 27853, 24 h, 37 °C): >128 µg/mL; MIC ([6]; E. coli CMCC 25922, 24 h, 37 °C): 128 µg/mL; MIC [7]: 128 µg/mL; MIC ([8]; B. subtilis CMCC 63501, 24 h, 37 °C): 128 µg/mL; MIC [10]: 32 µg/mL; MIC [11]: >32 µg/mL; MIC ([11]; listed as penicillin): > 32 µg/mL; MIC ([9]; S. aureus CMCC 25923, 24 h, 37 °C): 0.125 µg/mL |
